Results taken from publication PMC3894848 (Journal of medicinal chemistry, 2013).

Assays:
[1] = target: BRD4 BrD1 (Homo sapiens, UniProt O60885); assay: Fluorescence anisotropy competition binding assay; conditions: for binding activity toward BRD4 BrD1 (in words): fluorescence anisotropy/polarization assay; for Lipophilic Ligand Efficiency: against BRD4-BrD1, LLE = pKi – ClogP
[2] = target: BRD4 BrD2 (Homo sapiens, UniProt O60885); assay: Fluorescence anisotropy competition binding assay, BRD4 BrD2

Cc1cc(/N=N/c2cc(S(=O)(=O)O)c(C)cc2C)c(N)cc1O [Compound 1, (E)-5-((2-amino-4-hydroxy-5-methylphenyl)diazenyl)-2,4-dimethylbenzenesulfonic acid]
binding activity toward BRD4 BrD1 (in words) [1]: modest activity

Cc1cc(C)c(S(=O)(=O)O)cc1/N=N/c1cc(C)c(O)c(C)c1 [Compound 2, (E)-5-(3,5-dimethyl-4-hydroxyphenylazo)-2,4-dimethylbenzenesulfonic acid]
improvement in binding affinity to the BRD4 BrDs over MS120 (1) ([1]; vs MS120 (1), both BRD4 BrDs): 2–3 fold

Cc1cc(/N=N/c2cccc(S(=O)(=O)Nc3ccccn3)c2)cc(C)c1O [Compound 3, (E)-3-((4-hydroxy-3,5-dimethylphenyl)diazenyl)-N-(pyridin-2-yl)benzenesulfonamide]
binding activity toward BRD4 BrD1 (in words) [1]: retained the affinity of 2

Cc1cc(/N=N/c2ccc(S(=O)(=O)Nc3ccccn3)cc2)cc(C)c1O [Compound 4, (E)-4-((4-hydroxy-3,5-dimethylphenyl)diazenyl)-N-(pyridin-2-yl)benzenesulfonamide]
Lipophilic Ligand Efficiency [1]: 0.78
improvement of affinity for the BRD4 BrD1 vs compound 3 ([1]; vs 3): over 6 fold

Cc1cc(/N=N/c2ccc(S(=O)(=O)NCc3ccc(C(F)(F)F)cc3)cc2)cc(C)c1O [Compound 5, (E)-4-((4-hydroxy-3,5-dimethylphenyl)diazenyl)-N-(4-(trifluoromethyl)benzyl)benzenesul-fonamide]
binding activity toward BRD4 BrD1 (in words) [1]: deteriorated drastically

Cc1cc(/N=N/c2ccc(S(=O)(=O)N(C)c3ccccn3)cc2)cc(C)c1O [Compound 6, (E)-4-((4-hydroxy-3,5-dimethylphenyl)diazenyl)-N-methyl-N-(pyridin-2-yl)benzenesul-fonamide]
loss in activity/affinity toward BRD4 BrD1 vs MS435 ([1]; vs MS435): 9 fold

Cc1cc(/N=N/c2ccc(S(=O)(=O)Nc3ccc(C(=O)O)cn3)cc2)cc(C)c1O [Compound 9, (E)-6-(4-((4-hydroxy-3,5-dimethylphenyl)diazenyl)phenylsulfonamido)nicotinic acid]
better affinity/potency toward BRD4 BrD1 than MS435 ([1]; vs MS435): about 3 fold

COc1ccc(NS(=O)(=O)c2ccc(/N=N/c3cc(C)c(O)c(C)c3)cc2)nc1 [Compound 12, (E)-4-((4-hydroxy-3,5-dimethylphenyl)diazenyl)-N-(5-methoxypyridin-2-yl)benzenesulfon-amide]
improvement in binding affinity to the BRD4 BrD1 by nitrogen in the C ring ([1]; 12 vs. 13): 13 fold
selectivity for the BrD1 over the BrD2 of BRD4 ([1]; ratio of binding affinities): 4 fold
increase in binding affinity for the BRD4 BrD2 by nitrogen in the C ring ([2]; 12 vs. 13): 3 fold

Cc1cc(/N=N/c2ccc(S(=O)(=O)Nc3ccccn3)cc2)c(N)c(C)c1O [Compound 28, (E)-4-((2-amino-4-hydroxy-3,5-dimethylphenyl)diazenyl)N-(pyridin-2-yl)benzenesulfon-amide]
Lipophilic Ligand Efficiency [1]: 2.77
reduction in binding affinity to the BRD4 BrD1 vs MS436 [1]: about 2 fold

COc1cc(/N=N/c2ccc(S(=O)(=O)Nc3ccccn3)cc2)c(N)cc1O [Compound 30, (E)-4-((2-amino-4-hydroxy-5-methoxyphenyl)diazenyl)-N-(pyridin-2-yl)benzenesulfon-amide]
reduction in binding affinity to the BRD4 BrD1 vs MS436 [1]: 15 fold
reduction in binding affinity to the BRD4 BrD2 vs MS436 [2]: 15 fold

Cc1cc(/N=N/c2ccc(S(=O)(=O)Nc3ccccn3)cc2)nc(C)c1O [Compound 31, (E)-4-((5-hydroxy-4,6-dimethylpyridin-2-yl)diazenyl)-N-(pyridin-2-yl)benzenesulfonamide]
loss in activity/affinity toward BRD4 BrD1 vs MS435 ([1]; vs MS435): 3 fold

Cc1nc(/N=N/c2ccc(S(=O)(=O)Nc3ccccn3)cc2)c(C)c(C)c1O [Compound 32, (E)-4-((5-hydroxy-3,4,6-trimethylpyridin-2-yl)diazenyl)-N-(pyridin-2-yl)benzenesulfon-amide]
loss in activity/affinity toward BRD4 BrD1 vs MS435 ([1]; vs MS435): 3 fold

Cc1cc(/N=N/c2ccc(S(=O)(=O)NCc3ccc(C(F)(F)F)cc3)cc2)ccc1O [Compound 35, (E)-4-((4-hydroxy-3-methylphenyl)diazenyl)-N-(4-(trifluoromethyl)benzyl)benzenesulfon-amide]
binding activity toward BRD4 BrD1 (in words) [1]: deteriorated drastically

Cc1cc(/N=N/c2ccc(S(=O)(=O)NCc3ccc(C(F)(F)F)cc3)cc2)c(N)cc1O [Compound 36, (E)-4-((2-amino-4-hydroxy-5-methylphenyl)diazenyl)-N-(4-(trifluoromethyl)benzyl)benzene sulfonamide]
binding activity toward BRD4 BrD1 (in words) [1]: deteriorated drastically

COc1c(C)cc(/N=N/c2ccc(S(=O)(=O)Nc3ccccn3)cc2)cc1C [Compound 37, (E)-4-((4-methoxy-3,5-dimethylphenyl)diazenyl)-N-(pyridin-2-yl)benzenesulfonamide]
binding activity toward BRD4 BrD1 (in words) [1]: completely lost binding activity

CC(=O)Nc1c(C)cc(/N=N/c2ccc(S(=O)(=O)Nc3ccccn3)cc2)cc1C [Compound 38, (E)-N-(2,6-dimethyl-4-((4-(N-(pyridin-2-yl)sulfamoyl)phenyl)diazenyl)phenyl)acetamide]
binding activity toward BRD4 BrD1 (in words) [1]: completely lost binding activity

CC(C)c1cc(/N=N/c2ccc(S(=O)(=O)Nc3ccccn3)cc2)ccc1O [Compound 39, (E)-4-((4-hydroxy-3-isopropylphenyl)diazenyl)-N-(pyridin-2-yl)benzenesulfonamide]
loss in activity/affinity toward BRD4 BrD1 vs MS435 ([1]; vs MS435): about 10 fold

CC(C)(C)c1cc(/N=N/c2ccc(S(=O)(=O)Nc3ccccn3)cc2)ccc1O [Compound 40, (E)-4-((3-(tert-butyl)-4-hydroxyphenyl)diazenyl)-N-(pyridin-2-yl)benzenesulfonamide]
loss in activity/affinity toward BRD4 BrD1 vs MS435 ([1]; vs MS435): about 10 fold

CC(C)c1cc(/N=N/c2ccc(S(=O)(=O)Nc3ccccn3)cc2)cc(C(C)C)c1O [Compound 41, (E)-4-((4-hydroxy-3,5-diisopropylphenyl)diazenyl)-N-(pyridin-2-yl)benzenesulfonamide]
binding activity toward BRD4 BrD1 (in words) [1]: almost completely lost their activities

CC(C)(C)c1cc(/N=N/c2ccc(S(=O)(=O)Nc3ccccn3)cc2)cc(C(C)(C)C)c1O [Compound 42, (E)-4-((3,5-di-tert-butyl-4-hydroxyphenyl)diazenyl)-N-(pyridin-2-yl)benzenesulfonamide]
binding activity toward BRD4 BrD1 (in words) [1]: almost completely lost their activities

Cc1cc(/N=N/c2cccc(S(=O)(=O)Nc3ccccn3)c2)c(N)cc1O [Compound 51, (E)-3-((2-amino-4-hydroxy-5-methylphenyl)diazenyl)-N-(pyridin-2-yl)benzenesulfonamide]
reduction in binding affinity to the BRD4 BrD1 vs MS436 [1]: 10 fold
reduction in binding affinity to the BRD4 BrD2 vs MS436 [2]: 3 fold
